Measurements from US8119681B2, “2-[1-phenyl-5-hydroxy or methoxy-4alpha-methyl-hexahydrocyclopenta [ƒ]indazole-5-YL]ethyl phenyl derivatives as glucocorticoid receptor ligands” (Merck Sharp & Dohme Corp., priority 2006, dated 2012).

The compounds below were run against T1, human GR (Homo sapiens, UniProt P04150) (assay: Transrepression Assay (GITAR), TNFα-β-lactamase reporter gene in U937 cells). Conditions: U-937; 100 nM dexamethasone = 100% activity; read-out: maximal activity in the transrepression assay.
T1 sequence (P04150 1-777): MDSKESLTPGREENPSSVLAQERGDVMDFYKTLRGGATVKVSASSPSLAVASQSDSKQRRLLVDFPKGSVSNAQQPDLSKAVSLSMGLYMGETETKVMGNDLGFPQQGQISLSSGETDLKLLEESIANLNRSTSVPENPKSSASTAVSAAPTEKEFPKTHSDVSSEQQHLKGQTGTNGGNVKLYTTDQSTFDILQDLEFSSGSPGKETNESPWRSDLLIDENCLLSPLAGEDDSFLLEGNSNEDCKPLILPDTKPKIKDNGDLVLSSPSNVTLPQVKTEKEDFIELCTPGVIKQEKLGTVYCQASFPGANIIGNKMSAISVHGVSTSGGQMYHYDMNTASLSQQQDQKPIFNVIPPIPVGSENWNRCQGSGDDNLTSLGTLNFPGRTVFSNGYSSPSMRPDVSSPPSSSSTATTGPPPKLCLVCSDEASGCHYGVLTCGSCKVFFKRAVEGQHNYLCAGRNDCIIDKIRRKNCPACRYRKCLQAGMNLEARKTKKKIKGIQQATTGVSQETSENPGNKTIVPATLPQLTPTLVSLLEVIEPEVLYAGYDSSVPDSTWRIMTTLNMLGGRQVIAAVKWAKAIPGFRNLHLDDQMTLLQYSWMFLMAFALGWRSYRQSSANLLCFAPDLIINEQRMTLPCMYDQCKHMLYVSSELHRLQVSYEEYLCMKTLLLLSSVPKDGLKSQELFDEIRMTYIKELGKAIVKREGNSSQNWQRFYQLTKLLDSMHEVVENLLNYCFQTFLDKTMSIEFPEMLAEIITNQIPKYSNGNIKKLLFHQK
Format: cell-based
Design: U937 cells contain an endogenous glucocorticoid receptor (GR); endogenous in cells; host or cells: U937 cells stably transfected with the TNF-α promoter/β-lactamase reporter only
Source text: Transrepression Assay (GITAR)
This assay assesses the ability of test compounds to control transcription from the TNFα-β-lactamase reporter gene in U937 cells, a human myelomonocytic leukemia cell line that naturally expresses the human GR. The assay measures compound dependent-repression of the TNFa promoter linked to a reporter gene.
The human U937 cells that had been stably transfected with the TNF-α promoter driving β-lactamase are used for this assay. U937 cells contain an endogenous glucocorticoid receptor (GR). […] 50,000 cells/well are plated in 96 well black-walled plates the day of assay. Test compounds are added 10 μL/well, and cells are incubated at 37° C. for 30˜45 min. For assaying compounds, first dilute 1:10 in DMSO to make 1 mM, then further dilute 1:100 in medium to make 10× stock prior to adding to the cells. Add 50 ng/ml PMA (Sigma, cat# P8139) 10 μL/well to a final concentration 5 ng/ml, and 1 μg/ml LPS (Sigma, cat# L4130) 10 μL/well to a final concentration 100 ng/ml. Incubate cells at 370 C overnight for ˜18 hr. PMA is stored frozen as 100 μg/ml stock in DMSO. Dilute 1:10 in DMSO for a working stock of 10 μg/ml and store at −20 C. For assaying, dilute the 10 μg/ml working stock 1:200 in medium to make a 10× solution (50 ng/ml). Store frozen LPS at 1 mg/ml in PBS, dilute 1:1000 in medium to make 10× (1 μg/ml) for the assay. Add 6× loading buffer (CCF2-AM) 20 μL/well, and incubate at room temperature for 70˜90 min. […] The activity repressed by 100 nM dexamethasone alone is set as 100% activity.
`C[C@]12Cc3cnn(-c4ccc(F)cc4)c3C=C1CC[C@@]2(O)CCc1ccccc1CC(=O)NCC(F)(F)F` [Example 56, 2-(2-{2-[(4αS,5R)-1-(4-fluorophenyl)-5-hydroxy-4α-methyl-1,4,4α,5,6,7-hexahydrocyclopenta[f]indazol-5-yl]ethyl}phenyl)-N-(2,2,2-trifluoroethyl)acetamide] was tested, and the Emax was 5 to 100%.
`C[C@]12Cc3cnn(-c4ccc(F)cc4)c3C=C1CC[C@@]2(O)CCc1ccccc1C(=O)N1CC[C@@H](O)C1` [Example 58, (4αS,5R)-1-(4-fluorophenyl)-5-[2-(2-{[(3R)-3-hydroxypyrrolidin-1-yl]carbonyl}phenyl)ethyl]-4α-methyl-1,4,4α,5,6,7-hexahydrocyclopenta[f]indazol-5-ol] was tested, and the Emax was 5 to 100%.
Work on `C[C@]12Cc3cnn(-c4ccc(F)cc4)c3C=C1CC[C@@]2(O)CCc1ccccc1C(N)=O` [Example 60, 2-{2-[(4αS,5R)-1-(4-fluorophenyl)-5-hydroxy-4α-methyl-1,4,4α,5,6,7-hexahydrocyclopenta[f]indazol-5-yl]ethyl}benzamide] yielded an Emax of 5 to 100%.
Work on `CC1(NC(=O)c2c(F)cccc2CC[C@]2(O)CCC3=Cc4c(cnn4-c4ccc(F)cc4)C[C@@]32C)CC1` [Example 63, 2-fluoro-6-{2-[(4αS,5R)-1-(4-fluorophenyl)-5-hydroxy-4α-methyl-1,4,4α,5,6,7-hexahydrocyclopenta[f]indazol-5-yl]ethyl}-N-(1-methylcyclopropyl)benzamide] yielded an Emax of 5 to 100%.
`C[C@]12Cc3cnn(-c4ccc(F)cc4)c3C=C1CC[C@@]2(O)CCc1ccccc1C(=O)NCC(F)(F)F` [Example 64, 2-{2-[(4αS,5R)-1-(4-fluorophenyl)-5-hydroxy-4α-methyl-1,4,4α,5,6,7-hexahydrocyclopenta[f]indazol-5-yl]ethyl}-N-(2,2,2-trifluoroethyl)benzamide] gave an Emax of 5 to 100%.
In the case of `C[C@]12Cc3cnn(-c4ccc(F)cc4)c3C=C1CC[C@@]2(O)CCc1cccc(F)c1C(=O)N1CCC1` [Example 65, (4αS,5R)-5-{2-[2-(azetidin-1-ylcarbonyl)-3-fluorophenyl]ethyl}-1-(4-fluorophenyl)-4α-methyl-1,4,4α,5,6,7-hexahydrocyclopenta[f]indazol-5-ol], the Emax is reported as 5 to 100%.
`C[C@]12Cc3cnn(-c4ccc(F)cc4)c3C=C1CC[C@@]2(O)CCc1ccccc1C(=O)N1CCCC(F)(F)C1` [Example 66, (4αS,5R)-5-(2-{2-[(3,3-difluoropiperidin-1-yl)carbonyl]phenyl}ethyl)-1-(4-fluorophenyl)-4α-methyl-1,4,4α,5,6,7-hexahydrocyclopenta[f]indazol-5-ol] showed an Emax of 5 to 100%.
In the case of `CC(C)NC(=O)c1c(F)cccc1CC[C@]1(O)CCC2=Cc3c(cnn3-c3ccc(F)cc3)C[C@@]21C` [Example 67, 2-fluoro-6-{2-[(4αS,5R)-1-(4-fluorophenyl)-5-hydroxy-4α-methyl-1,4,4α,5,6,7-hexahydrocyclopenta[f]indazol-5-yl]ethyl}-N-isopropylbenzamide], the Emax is reported as 5 to 100%.
`C[C@]12Cc3cnn(-c4ccc(F)cc4)c3C=C1CC[C@@]2(O)CCc1cccc(F)c1C(N)=O` [Example 68, 2-fluoro-6-{2-[(4αS,5R)-1-(4-fluorophenyl)-5-hydroxy-4α-methyl-1,4,4α,5,6,7-hexahydrocyclopenta[f]indazol-5-yl]ethyl}benzamide] showed an Emax of 5 to 100%.
With `C[C@]12Cc3cnn(-c4ccc(F)cc4)c3C=C1CC[C@@]2(O)CCc1cccc(F)c1C(=O)N1CC[C@H](F)C1` [Example 69, (4αS,5R)-5-[2-(3-fluoro-2-{[(3S)-3-fluoropyrrolidin-1-yl]carbonyl}phenyl)ethyl]-1-(4-fluorophenyl)-4α-methyl-1,4,4α,5,6,7-hexahydrocyclopenta[f]indazol-5-ol] the Emax was 5 to 100%.
`CC(C)(NC(=O)c1ccccc1CC[C@]1(O)CCC2=Cc3c(cnn3-c3ccc(F)cc3)C[C@@]21C)C(N)=O` [Example 70, N-(2-amino-1,1-dimethyl-2-oxoethyl)-2-{2-[(4αS,5R)-1-(4-fluorophenyl)-5-hydroxy-4α-methyl-1,4,4α,5,6,7-hexahydrocyclopenta[f]indazol-5-yl]ethyl}benzamide] showed an Emax of 5 to 100%.
`CCNC(=O)C(C)(C)NC(=O)c1ccccc1CC[C@]1(O)CCC2=Cc3c(cnn3-c3ccc(F)cc3)C[C@@]21C` [Example 71, N-[2-(ethylamino)-1,1-dimethyl-2-oxoethyl]-2-{2-[(4αS,5R)-1-(4-fluorophenyl)-5-hydroxy-4α-methyl-1,4,4α,5,6,7-hexahydrocyclopenta[f]indazol-5-yl]ethyl}benzamide] showed an Emax of 5 to 100%.
With `COC(=O)[C@@H](C)NC(=O)c1ccccc1CC[C@]1(O)CCC2=Cc3c(cnn3-c3ccc(F)cc3)C[C@@]21C` [Example 72, methyl N-(2-{2-[(4αS,5R)-1-(4-fluorophenyl)-5-hydroxy-4α-methyl-1,4,4α,5,6,7-hexahydrocyclopenta[f]indazol-5-yl]ethyl}benzoyl)-D-alaninate] the Emax was 5 to 100%.
With `CC1CN1C(=O)c1ccccc1CC[C@]1(O)CCC2=Cc3c(cnn3-c3ccc(F)cc3)C[C@@]21C` (stereo partly drawn) [Example 73, (4αS,5R)-1-(4-fluorophenyl)-4α-methyl-5-(2-{2-[(2-methylaziridin-1-yl)carbonyl]phenyl}ethyl)-1,4,4α,5,6,7-hexahydrocyclopenta[f]indazol-5-ol] the Emax was 5 to 100%.
With `C[C@]12Cc3cnn(-c4ccc(F)cc4)c3C=C1CC[C@@]2(O)CCc1ccccc1C(=O)N1CCC(F)(F)C1` [Example 74, (4αS,5R)-5-(2-{2-[(3,3-difluoropyrrolidin-1-yl)carbonyl]phenyl}ethyl)-1-(4-fluorophenyl)-4α-methyl-1,4,4α,5,6,7-hexahydrocyclopenta[f]indazol-5-ol] the Emax was 5 to 100%.
For `CNC(=O)C(C)(C)NC(=O)c1ccccc1CC[C@]1(O)CCC2=Cc3c(cnn3-c3ccc(F)cc3)C[C@@]21C` [Example 75, N-[1,1-dimethyl-2-(methylamino)-2-oxoethyl]-2-{2-[(4αS,5R)-1-(4-fluorophenyl)-5-hydroxy-4α-methyl-1,4,4α,5,6,7-hexahydrocyclopenta[f]indazol-5-yl]ethyl}benzamide], the Emax was 5 to 100%.
`C[C@]12Cc3cnn(-c4ccc(F)cc4)c3C=C1CC[C@@]2(O)CCc1cccc(F)c1C(=O)N1CCCC(F)(F)C1` [Example 76, (4αS,5R)-5-(2-{2-[(3,3-difluoropiperidin-1-yl)carbonyl]-3-fluorophenyl}ethyl)-1-(4-fluorophenyl)-4α-methyl-1,4,4α,5,6,7-hexahydrocyclopenta[f]indazol-5-ol] showed an Emax of 5 to 100%.
Compound `C[C@]12Cc3cnn(-c4ccc(F)cc4)c3C=C1CC[C@@]2(O)CCc1cccc(F)c1C(=O)N1CCC(F)(F)C1` [Example 77, (4αS,5R)-5-(2-{2-[(3,3-difluoropyrrolidin-1-yl)carbonyl]-3-fluorophenyl}ethyl)-1-(4-fluorophenyl)-4α-methyl-1,4,4α,5,6,7-hexahydrocyclopenta[f]indazol-5-ol] has an Emax of 5 to 100%.
`C[C@]12Cc3cnn(-c4ccc(F)cc4)c3C=C1CC[C@@]2(O)CCc1cccc(F)c1CNS(=O)(=O)c1ccccc1` [Example 78, N-(2-fluoro-6-{2-[(4αS,5R)-1-(4-fluorophenyl)-5-hydroxy-4α-methyl-1,4,4α,5,6,7-hexahydrocyclopenta[f]indazol-5-yl]ethyl}benzyl)benzenesulfonamide] gave an Emax of 5 to 100%.
Compound `C[C@]12Cc3cnn(-c4ccc(F)cc4)c3C=C1CC[C@@]2(O)CCc1cccc(F)c1CNS(=O)(=O)c1ccc(F)cc1F` [Example 79, 2,4-difluoro-N-(2-fluoro-6-{2-[(4αS,5R)-1-(4-fluorophenyl)-5-hydroxy-4α-methyl-1,4,4α,5,6,7-hexahydrocyclopenta[f]indazol-5-yl]ethyl}benzyl)benzenesulfonamide] has an Emax of 5 to 100%.
